Measurements reported in PubChem BioAssay (NCI).
Values joined by “and” are separate entries in the source; they are usually repeats but may differ in a detail not shown here. Identical values can stand only once.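 Grown in 96-well plates, cells were treated for 48 hours with each compound at five concentrations. Insufficient inhibition: endpoint recorded as highest concentration tested. The concentration for 50% growth inhibition is given as GI50. TGI: total growth inhibition.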

Tests used:
Test in all cases: NCI anticancer screen, dose series, 48 h
RXF 393 renal = test system: RXF 393 renal
NCI-H226 lung = test system: NCI-H226 lung
NCI-H460 lung = test system: NCI-H460 lung
M14 melanoma = test system: M14 melanoma
SW-620 colon = test system: SW-620 colon
HCT-116 colon = test system: HCT-116 colon
SK-MEL-5 melanoma = test system: SK-MEL-5 melanoma
IGROV1 ovarian = test system: IGROV1 ovarian
786-0 renal = test system: 786-0 renal
OVCAR-8 ovarian = test system: OVCAR-8 ovarian

Structure (SMILES)	TGI (RXF 393 renal)	TGI (NCI-H226 lung)	TGI (NCI-H460 lung)	TGI (M14 melanoma)	TGI (SW-620 colon)	TGI (HCT-116 colon)	TGI (SK-MEL-5 melanoma)	TGI (IGROV1 ovarian)	TGI (786-0 renal)	TGI (OVCAR-8 ovarian)	GI50 (RXF 393 renal)	GI50 (NCI-H226 lung)	GI50 (NCI-H460 lung)	GI50 (M14 melanoma)	GI50 (SW-620 colon)	GI50 (HCT-116 colon)	GI50 (SK-MEL-5 melanoma)	GI50 (IGROV1 ovarian)	GI50 (786-0 renal)	GI50 (OVCAR-8 ovarian)
CN(C)CC1=Nc2cccc3cccc(c23)N1	31.9 µM	37.4 µM	> 100 µM	34.7 µM	> 100 µM	30.8 µM	28.7 µM	36.6 µM	25.8 µM	> 100 µM	–	–	–	–	–	–	–	–	–	–
O=C(NN1C(=O)CSC12CCC(c1ccccc1)CC2)c1[nH]c2ccc(F)cc2c1-c1ccccc1 (centres undefined)	29.5 µM	38.6 µM	47.7 µM	35.6 µM	36.8 µM	27.1 µM	32.3 µM	25.7 µM	33.8 µM	36.5 µM	15.3 µM	19.2 µM	19.6 µM	20.1 µM	17.4 µM	14 µM	17.5 µM	13 µM	16.4 µM	17.8 µM
COc1ccc2c(c1OC)C(=O)O[C@@H]2[C@H]1c2c(c(Br)c3c(c2OC)OCO3)CCN1C	> 100 µM	> 100 µM	> 100 µM	25 µM	> 100 µM	> 100 µM	> 100 µM	> 100 µM	> 100 µM	> 100 µM	20.3 µM	44.1 µM	3.6 µM	3.3 µM	5.37 µM	4.69 µM	4.12 µM	7.77 µM	12 µM	32.4 µM
CNC(=O)c1cncc(/C=C/c2c(Cl)cccc2Cl)c1	> 25 µM	> 25 µM	> 25 µM	> 25 µM	> 25 µM	> 25 µM	> 25 µM	> 25 µM	> 25 µM	> 25 µM	8.89 µM	> 24.1 µM	> 25 µM	> 23.4 µM	> 25 µM	> 25 µM	14.5 µM	> 17.9 µM	> 25 µM	> 25 µM
CCc1nc(N)nc(N)c1C#CC(C)c1cc(-c2ccnc(C)c2)c2oc(C)nc2c1 (centres undefined)	2.71 µM	11.2 µM	4.26 µM	5.69 µM	13.2 µM	10.9 µM	1.49 µM	6.23 µM	5.54 µM	47.1 µM	0.0395 µM	0.913 µM	< 0.01 µM	< 0.01 µM	< 0.01 µM	< 0.01 µM	< 0.01 µM	< 0.01 µM	< 0.01 µM	< 0.01 µM
Cc1cccc(N=C2NC(=O)C(CC(=O)Nc3ccccc3Cl)S2)c1 (centres undefined)	> 100 µM	> 100 µM	> 100 µM	> 100 µM	> 100 µM	> 100 µM	> 100 µM	> 100 µM	> 100 µM	> 100 µM	–	–	–	–	–	–	–	–	–	–
c1ccc2c(CN3CCC(C4CCN(Cc5cccc6ccccc56)CC4)CC3)cccc2c1	26.9 µM and 43.3 µM	> 100 µM	52.4 µM and 46.8 µM	3.59 µM and 3.89 µM	9.17 µM and 40.1 µM	21.1 µM and > 58.2 µM	14.2 µM and 9.41 µM	> 100 µM	32.2 µM and 34.5 µM	> 72.4 µM	–	31.7 µM and 96.8 µM	–	–	3.02 µM and 11.4 µM	7.28 µM and 16.3 µM	–	32.2 µM and > 79.4 µM	–	21.8 µM and 6.98 µM
CC(=O)O[C@H]1CC[C@@]2(C)C(=C/C(=N\[N+](=O)[O-])[C@H]3C4CCC([C@H](C)CCCC(C)C)[C@@]4(C)CCC32)C1 (some centres undefined)	> 100 µM	> 100 µM	> 100 µM	> 100 µM	> 100 µM	> 100 µM	> 100 µM	> 100 µM	> 100 µM	> 100 µM	–	–	–	–	–	–	–	–	–	–
Cc1ccccc1NC(=O)c1cc2ccccc2cc1O	7.23 µM	> 100 µM	7.29 µM	> 100 µM	> 100 µM	15.1 µM	5.58 µM	30.3 µM	> 100 µM	59.3 µM	2.78 µM	3.59 µM	2.77 µM	4.08 µM	3.96 µM	3.45 µM	2.38 µM	2.65 µM	3.41 µM	3.46 µM
COc1ccc2c(c1)C=C1CSCC3=Cc4cc(OC)ccc4OC13O2	0.645 µM	> 100 µM	> 100 µM	> 100 µM	> 100 µM	> 100 µM	> 100 µM	> 100 µM	> 100 µM	> 100 µM	0.216 µM	–	0.387 µM	0.323 µM	0.373 µM	0.471 µM	0.41 µM	0.608 µM	0.821 µM	0.522 µM
CC1=NN(c2ccccc2)C(=O)C1N=Nc1ccc(S(N)(=O)=O)cc1 (centres undefined)	> 100 µM	> 100 µM	> 100 µM	> 100 µM	> 100 µM	> 100 µM	> 100 µM	> 100 µM	> 100 µM	> 100 µM	–	–	–	–	–	–	–	–	–	–
O=C1NC(c2ccccc2)N=C2Oc3ccccc3C=C12 (centres undefined)	> 100 µM	12.8 µM	> 43.7 µM	> 31.6 µM	> 100 µM	> 100 µM	> 100 µM	> 74.4 µM	> 39 µM	> 100 µM	–	–	–	–	–	–	–	–	–	–
CCCC(CCC)C(=O)OCC1(CO)C/C(=C\c2ccc(C(F)(F)F)cc2)C(=O)O1 (centres undefined)	37.8 µM	33.1 µM	21.7 µM	23.2 µM	21.8 µM	25.6 µM	19.6 µM	33 µM	22.5 µM	41 µM	16.6 µM	14.1 µM	3.04 µM	10.7 µM	8.64 µM	12.6 µM	0.948 µM	14.8 µM	10.1 µM	21 µM
O=C(O)C1CC2CC(=O)C1C2 (centres undefined)	> 100 µM	> 100 µM	> 100 µM	> 100 µM	> 100 µM	> 100 µM	> 100 µM	> 100 µM	> 100 µM	> 100 µM	–	–	–	–	–	–	–	–	–	–
CNc1ncc2cc(Oc3ccc(F)cc3F)c(=O)n(C)c2n1	> 25 µM	> 25 µM	> 25 µM	> 25 µM	> 25 µM	> 25 µM	> 25 µM	> 25 µM	> 25 µM	> 25 µM	> 19.3 µM	> 25 µM	> 25 µM	> 25 µM	> 25 µM	> 25 µM	> 25 µM	> 25 µM	> 25 µM	> 25 µM
NC(=O)N/N=C(\CCC(=O)N(Cc1ccccc1)Cc1ccccc1)CC(=O)c1ccc(F)cc1	> 100 µM	> 100 µM	> 100 µM	> 100 µM	> 100 µM	> 100 µM	> 100 µM	> 100 µM	87.4 µM	> 100 µM	–	–	–	–	–	–	–	–	–	–
CC1=NN(C(=O)c2nn(-c3ccc(Cl)cc3)cc2O)C(=O)C1	> 76.6 µM	> 67.5 µM	> 52.7 µM	> 53.5 µM	> 100 µM	> 100 µM	> 36.9 µM	41 µM	> 60.4 µM	> 100 µM	2.18 µM	3.17 µM	0.41 µM	2.8 µM	4.55 µM	0.743 µM	3.45 µM	0.505 µM	5.33 µM	1.49 µM
